In patent US8420594B2, “Inhibitors of MRP4 and agents stimulating MRP4 activity for the treatment of cardiac disorders” (INSERM (Institute de la Sante et de la Recherche Medicale), priority 2008, dated 2013):
Like-named read-outs stand apart in the source and are kept apart here.

Assays:
PDE3 [1] = assay: Chronotropic effect of PDE3 inhibitor, telemetric ECG (RR interval) in WT and MRP4 KO mice; format: in vivo; settings: for heart rate: wild-type mice
Description: (§1) Animal models. MRP4 ablated mice (MRP4 KO) were generated and genotyped as described (Leggas, M. et al. Mol Cell Biol 24, 7612-21 (2004). Wild-type and homozygous MRP4-KO mice (8-10 weeks of age) were subjected to left ventricular pressure overload by transverse aortic constriction (TAC), as previously described (Rockman, et al. Proc Natl Acad Sci USA 88, 8277-81 (1991). Five weeks after the procedure, the animals were sacrified and heart and body weights were determined. As a model of β-adenergic overstimulation miniosmotic pumps (Alzet) containing (−)-isoproterenol-bitartrate (Sigma Aldrich) (delivering 20 μg/g/day each) were implanted subcutaneously into 10-12 weeks old animals. Determination of heart weights and analysis of gene expression were carried out after 14 days of continuous infusion. Finally, male MRP4 KO mice and WT littermate were subjected to voluntary exercise. The animals were 10-12 weeks at the start of the study. Individual animals were housed in a cage with free access to a 11.5-cm-diameter running wheel with a 5.0-cm-wide running surface equipped with a digital magnetic counter (model BC 1200, Sigma Sport) that is activated by wheel rotation. Daily exercise values for time and distance run were recorded for each exercised animal throughout the duration of the exercise period.
Telemetry studies. Long-term telemetric ambulatory ECG measurements were performed in wild type and knock out male mice at 3 months of age. Six-lead restrained ECG monitoring of conscious animals (hamsters and mice) were performed with EasyCG® tools system (EMKA technologies, France) formed by the four sensors of ecgTUNNEL® system platform and a translucent animal sizefitting half-tunnel. Each animal was put inside the tunnel, which was then closed, assuring the animal to be properly restrained. The four wires of the platform were connected to a wireless transmitter and amplifier system (emkaPACK®, EMKA technologies). Telemetric ECG tracing were obtained in conscious mice during quiet awake time at daytime. To minimize the effects of stress, animals were allowed to stay in the restraining system for 5 min before starting ECG recordings. […] Six leads of ECG were recorded during 15 to 20 min using specific software (iox®, EMKA technologies): three leads were measured (L1, L2, L3), and three were calculated (aVR, aVL, aVF). Dedicated software (Ecg-auto®, EMKA technologies) was used to measure RR interval, SDNN and HRV index. If needed, raw data were submitted to a 50-Hz notch filter with an automatic setting determined by the software.

β-adrenergic system = assay: Chronic β-adrenergic stimulation, isoproterenol-induced cardiac hypertrophy; format: in vivo; settings: 20 μg/g/day for 2 weeks by miniosmotic pumps, 3 month-old MRP4 KO vs WT mice
Description: as §1, with “period. […]” for “period.”

PDE3 [2] = system: PDE3
Description: Cardiac ventricular myocytes were enzymatically dissociated using standard procedures (Fauconnier, J. et al. Diabetes, 2007). Briefly, mice were euthanized by cervical dislocation, the heart rapidly excised and retrogradely perfused at 37° C. for 6-8 min with a modified tyrode solution (in mM: NaCl113, KCL 4.7, KH2PO4 0.6, Na2HPO4 0.6, MgSO4 1.2, NaHCO3 12, KHCO3 10, HEPES10 Taurine 30, pH=7.4) containing 1 mg.ml-1 of liberase (Roche, France). Isolated myocytes were then transferred to the same solution, free of enzyme, containing 1 mM CaCl2.
Cells were loaded for 30 min at RT with Fluo-4 AM (5 μmol/l, Molecular Probes). Cells were then field-stimulated at 1 Hz with a 1-2 ms current pulse delivered via two platinum electrodes, one on each side of the perfusion chamber. Changes in Fluo-4 fluorescence were recorded using an LSM510 Meta Zeiss confocal microscope equipped with a 63× water immersion objective (NA: 1.2). Measurements were performed in line-scan mode (1.5 ms/line) and scanning was carried out along the long axis of the cell. An excitation wavelength of 488 nm was used, and emitted light was collected through a 505 nm long pass filter. The laser intensity used (3-6% of the maximum) had no noticeable deleterious effect on the fluorescence signal or on cell function over the time-course of the experiment. To enable comparisons between cells, the change in fluorescence (ΔF) was divided by the fluorescence detected immediately before the 0.5 Hz stimulation pulse (F0).

PDE3 [3] = system: PDE3; remark: listed apart in the source
Description: Briefly, mice were euthanized by cervical dislocation, the heart rapidly excised and retrogradely perfused at 37° C. for 6-8 min with a modified tyrode solution (in mM: NaCl113, KCL 4.7, KH2PO4 0.6, Na2HPO4 0.6, MgSO4 1.2, NaHCO3 12, KHCO3 10, HEPES10 Taurine 30, pH=7.4) containing 1 mg.ml-1 of liberase (Roche, France). Isolated myocytes were then transferred to the same solution, free of enzyme, containing 1 mM CaCl2.
In addition, we have measured the effect of PDE3 inhibition by cilostamide on the contractility of ventricular myocytes isolated from WT and MRP4 KO mice.

SMILES: Cc1[nH]c(=O)c(C#N)cc1-c1ccncc1 [Milrinone]
- RR interval (PDE3 [1]; 0.1 mg/kg, MRP4 KO mice): significant decrease
- heart rate (PDE3 [1]; 0.1 mg/kg): not changing heart rate
- decrease in RR interval (PDE3 [1]; 1 mg/kg, MRP4 KO mice compared to wild-type mice): significantly higher
- heart rate (PDE3 [1]; 1 mg/kg): acceleration of heart rate
- chronotropic dose-effect (PDE3 [1]; MRP4 KO mice compared to wild-type): dramatically enhanced

SMILES: CC(C)NC[C@H](O)c1ccc(O)c(O)c1 [Isoproterenol, (−)-isoproterenol-bitartrate]
- cardiac hypertrophy (HW/TL ratio) (β-adrenergic system): significantly more important

SMILES: CN(C(=O)CCCOc1ccc2[nH]c(=O)ccc2c1)C1CCCCC1 [Cilostamide]
- Ca2+ transient amplitude (ΔF/F0) (PDE3 [2]; MRP4 KO mice myocytes): increased
- Ca2+ transient half width (PDE3 [2]; MRP4 KO mice myocytes): decreased
- Ca2+ transient rate of decay t (PDE3 [2]; MRP4 KO mice myocytes): decreased
- Ca2+ transient rate of rise (ΔF/F0.ms−1) (PDE3 [2]; MRP4 KO mice myocytes): decreased
- Ca2+ transient (PDE3 [2]; myocytes isolated from WT heart): no effect
- contractility increase, MRP4 KO vs WT (PDE3 [3]; MRP4 KO compared to WT): significantly more
- contractility of ventricular myocytes (PDE3 [3]; MRP4 KO mice myocytes): increased
- contractility of ventricular myocytes (PDE3 [3]; WT mice myocytes): increased
